Experimental data from EP1954678B1, “NOVEL NK1 AND NK2 ANTAGONISTS” (Abbott Products GmbH, priority 2005, dated 2007).

Target: T1, cloned human NK2 receptors (Homo sapiens, UniProt P21452)
T1 construct: expressed in transfected cells
T1 sequence (P21452 1-398): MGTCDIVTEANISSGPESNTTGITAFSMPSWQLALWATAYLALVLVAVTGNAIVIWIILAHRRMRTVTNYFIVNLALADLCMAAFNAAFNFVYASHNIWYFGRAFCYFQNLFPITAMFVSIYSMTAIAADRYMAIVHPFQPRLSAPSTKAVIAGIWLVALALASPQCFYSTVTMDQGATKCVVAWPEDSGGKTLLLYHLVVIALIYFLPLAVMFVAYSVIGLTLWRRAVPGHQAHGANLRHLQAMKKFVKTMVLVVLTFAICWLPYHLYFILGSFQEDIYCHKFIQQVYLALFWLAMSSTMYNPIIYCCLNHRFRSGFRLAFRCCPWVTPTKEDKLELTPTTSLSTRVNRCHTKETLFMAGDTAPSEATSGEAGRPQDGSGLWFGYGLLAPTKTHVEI
Assay: Ca2+ measurements using FLIPR for NK2 activity in CHO cells
Format: cell-based
Details: NKA 10^-7 M as agonist; compound applied 7 min before; pA2 calculated from IC50
Text: The NK receptor is coupled to Gq.
All steps were done under sterile conditions. […] The results are summarized in table 5: Table 5: pA2 data for NK1 and NK2: […]

- Kb: 0.01 µM
SMILES: CN(C[C@@H](CCN1CCN([C@@H](c2ccco2)[C@H](O)CO)CC1)c1ccc(Cl)c(Cl)c1)C(=O)c1cc(C#N)cc2ccccc12 [Compound 1, 3-cyano-N-[(2S)-2-(3,4-dichlorophenyl)-4-{4-[(1R,2S)-1-(2-furyl)-2,3-dihydroxypropyl]piperazin-1-yl}butyl]-N-methyl-1-naphthamide]
